Results: patent publication US9573953B2, “Heteroaromatic compounds as PI3 kinase modulators and methods of use” (CALITOR SCIENCES, LLC, priority 2013, dated 2017)

How the values were obtained:
PI3K (p110δ/p85α) (h) = target: T1, PI3K (p110δ/p85α) (h) (Homo sapiens, UniProt O00329); experiment: PI3K (p110δ/p85α) (h) non-radioactive (HTRF) assay; assay type: biochemical
T1 construct: purchased Millipore UK Ltd (assays run there as a service)
Procedure: PI3K (p110δ/p85α) (h) [Non-Radioactive Assay]
(§1) PI3K (p110δ/p85α) (h) is incubated in assay buffer containing 10 μM phosphatidylinositol-4,5-bisphosphate and MgATP (concentration as required). The reaction is initiated by the addition of the MgATP mix. After incubation for 30 minutes at room temperature, the reaction is stopped by the addition of stop solution containing EDTA and biotinylated phosphatidylinositol-3,4,5-trisphosphate. Finally, detection buffer is added, which contains europium-labelled anti-GST monoclonal antibody, GST-tagged GRP1 PH domain and streptavidin-allophycocyanin. The plate is then read in time-resolved fluorescence mode and the homogenous time-resolved fluorescence (HTRF) signal is determined according to the formula HTRF=10000×(Em665 nm/Em620 nm).
(§2) The kinase assays described herein were performed at Millipore UK Ltd, Dundee Technology Park, Dundee DD2 1SW, UK.

[1] = Compound stability in rat liver microsomes; assay type: in vitro ADME; settings: for half-life at 5 μM / CLint scaled at 5 μM: pH 7.4; for CLint scaled at 5 μM: rat liver microsomes, in vivo CLint extrapolated
Procedure: (§3) Human or rat liver microsomes incubations were conducted in duplicate in polypropylene tubes. The typical incubation mixtures consisted of human or rat liver microsomes (0.5 mg protein/mL), compounds of interest (5 μM) and NADPH (1.0 mM) in a total volume of 200 μL potassium phosphate buffer (PBS, 100 mM, pH=7.4). Compounds were dissolved in DMSO and diluted with PBS such that the final concentration of DMSO was 0.05%. The enzymatic reactions were commenced with the addition of protein after a 3-min preincubation and incubated in a water bath open to the air at 37° C. Reactions were terminated at various time points (0, 5, 10, 15, 30, 60 min) by adding equal volume of ice-cold acetonitrile. The samples were stored at −80° C. until LC/MS/MS assays.
(§4) The concentrations of compounds in the incubation mixtures of human or rat liver microsomes were determined by a LC/MS/MS method. The ranges of the linearity in the concentration range were determined for each tested compounds.
(§5) A parallel incubation was performed using denatured microsomes as the negative control, and reactions were terminated at various time points (0, 15, 60 min) after incubation at 37° C.
(§6) Dextromethorphan (70 μM) was selected as the positive control, and reactions were terminated at various time points (0, 5, 10, 15, 30, 60 min) after incubation at 37° C. Both positive and negative control samples were included in each assay to ensure the integrity of the microsomal incubation system.
(§7) The concentrations of compounds in human or rat liver microsome incubations were plotted as a percentage of the relevant zero time point control for each reaction. The in vivo CLint were extrapolated (ref.: Naritomi Y, Terashita S, Kimura S, Suzuki A, Kagayama A, Sugiyama Y. “Prediction of human hepatic clearance from in vivo animal experiments and in vitro metabolic studies with liver microsomes from animals and humans”, Drug Metabolism and Disposition, 2001, 29, 1316-1324).

U87MG glioblastoma cells = experiment: Tumor xenograft model (U87MG), tumor growth inhibition; assay type: in vivo, mice; settings: oral gavage
Procedure: The efficacy of compounds disclosed herein was evaluated in a standard murine model of tumorigenesis. Human tumor cells (U87MG glioblastoma cells from ATCC) were expended in culture, harvested, and injected subcutaneously onto the rear flank of 6-7 week old female athymic nude mice (BALB/cA nu/nu, Hunan SLAC Laboratory Animal, Co.) (n=6-10 for vehicle group and for each dosing group). When tumors reached a volume of 100-250 mm^3, animals were randomly divided into vehicle control (for example, 5% DMSO+70% CAPTISOL® (30%), 7% HCl (pH1), 18% CAPTISOL® (30%); or 7% DMSO, 7% HCl (pH1), 70% CAPTISOL® (30%), 16% CAPTISOL® (30%), or the like) and compound groups. Subsequent administration of compound by oral gavage begins anywhere from day 0 to day 15 post tumor cell challenge and generally continues with once a day for the duration of the experiment.
Progression of tumor growth is assessed by tumor volumes and recorded as a function of time. The long (L) and short (W) axes of the subcutaneous tumors were measured with calipers twice weekly, and the tumor volume (TV) calculated as (L×W^2)/2). TGI was calculated from the difference between the median tumor volumes of vehicle-treated and drug-treated mice, expressed as a percentage of the median tumor volume of the vehicle-treated control group, by the following relation:
Initial statistical analysis is done by repeated measures analysis of variance (RMANOVA), followed by Scheffe post hoc testing for multiple comparisons. Vehicle alone (5% DMSO+70% CAPTISOL® (30%), 7% HCl (pH1), 18% CAPTISOL® (30%); or 7% DMSO, 7% HCl (pH1), 70% CAPTISOL® (30%), 16% CAPTISOL® (30%), or the like) is the negative control.

PI3K p110β/p85α (h) = target: T2, PI3K p110β/p85α (h) (Homo sapiens, UniProt P42338); experiment: PI3K p110β/p85α (h) non-radioactive (HTRF) assay; assay type: biochemical
T2 construct: purchased Millipore UK Ltd (assays run there as a service)
T2 sequence (P42338 whole entry): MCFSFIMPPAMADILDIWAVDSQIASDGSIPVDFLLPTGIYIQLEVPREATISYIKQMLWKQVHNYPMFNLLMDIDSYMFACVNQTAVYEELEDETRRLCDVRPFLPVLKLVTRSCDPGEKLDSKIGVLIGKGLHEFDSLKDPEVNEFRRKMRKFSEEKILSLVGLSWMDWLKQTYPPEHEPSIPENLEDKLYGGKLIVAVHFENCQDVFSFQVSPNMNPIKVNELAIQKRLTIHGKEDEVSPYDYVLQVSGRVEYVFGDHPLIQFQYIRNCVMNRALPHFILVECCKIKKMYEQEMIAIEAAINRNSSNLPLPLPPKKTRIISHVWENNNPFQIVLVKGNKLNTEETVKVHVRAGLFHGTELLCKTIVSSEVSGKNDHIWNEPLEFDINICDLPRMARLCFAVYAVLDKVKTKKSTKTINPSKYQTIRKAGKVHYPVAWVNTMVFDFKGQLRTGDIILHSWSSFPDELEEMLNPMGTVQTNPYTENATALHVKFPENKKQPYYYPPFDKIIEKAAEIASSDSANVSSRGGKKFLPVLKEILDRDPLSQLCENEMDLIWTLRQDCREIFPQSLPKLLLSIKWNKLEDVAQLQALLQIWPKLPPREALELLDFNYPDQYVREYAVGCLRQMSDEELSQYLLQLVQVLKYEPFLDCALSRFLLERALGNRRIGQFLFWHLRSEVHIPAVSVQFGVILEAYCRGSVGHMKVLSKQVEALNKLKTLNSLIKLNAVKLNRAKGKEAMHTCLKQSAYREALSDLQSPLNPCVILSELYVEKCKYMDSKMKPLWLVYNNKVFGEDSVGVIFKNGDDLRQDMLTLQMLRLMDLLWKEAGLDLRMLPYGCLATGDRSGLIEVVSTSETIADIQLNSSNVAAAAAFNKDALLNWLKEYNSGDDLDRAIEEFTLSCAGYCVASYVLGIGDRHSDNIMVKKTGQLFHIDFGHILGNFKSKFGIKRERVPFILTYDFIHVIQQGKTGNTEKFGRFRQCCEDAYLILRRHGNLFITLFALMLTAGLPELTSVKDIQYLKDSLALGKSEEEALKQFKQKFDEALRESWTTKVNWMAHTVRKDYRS
T2 sequence (P27986 whole entry partner): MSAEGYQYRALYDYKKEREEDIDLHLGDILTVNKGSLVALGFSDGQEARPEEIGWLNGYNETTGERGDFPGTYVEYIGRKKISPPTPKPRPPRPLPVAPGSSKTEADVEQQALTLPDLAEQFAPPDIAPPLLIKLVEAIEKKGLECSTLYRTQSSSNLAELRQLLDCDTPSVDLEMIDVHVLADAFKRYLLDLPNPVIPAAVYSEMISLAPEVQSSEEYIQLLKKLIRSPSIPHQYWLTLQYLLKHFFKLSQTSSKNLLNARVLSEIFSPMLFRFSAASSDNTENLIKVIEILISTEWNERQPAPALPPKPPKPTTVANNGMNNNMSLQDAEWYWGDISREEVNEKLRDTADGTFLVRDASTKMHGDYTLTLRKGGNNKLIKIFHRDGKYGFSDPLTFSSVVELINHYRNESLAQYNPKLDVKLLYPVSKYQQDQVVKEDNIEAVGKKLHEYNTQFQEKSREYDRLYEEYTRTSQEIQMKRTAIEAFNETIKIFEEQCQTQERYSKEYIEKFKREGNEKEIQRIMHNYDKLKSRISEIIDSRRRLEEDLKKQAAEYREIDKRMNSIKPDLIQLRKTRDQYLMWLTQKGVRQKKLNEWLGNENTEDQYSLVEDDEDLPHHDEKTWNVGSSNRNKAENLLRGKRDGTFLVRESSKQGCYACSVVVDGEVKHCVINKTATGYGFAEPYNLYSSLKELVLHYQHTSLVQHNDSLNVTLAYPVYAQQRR
Procedure: PI3K p110β/p85α (h) [Non-Radioactive Assay]
as §1, with “(p110β/p85α)” for “(p110δ/p85α)”
as §2

PI3K (p120γ) (h) = target: T3, PI3K (p120γ) (h) (Homo sapiens, UniProt P48736); experiment: PI3K (p120γ) (h) non-radioactive (HTRF) assay; assay type: biochemical
T3 construct: purchased Millipore UK Ltd (assays run there as a service)
T3 sequence (P48736 whole entry): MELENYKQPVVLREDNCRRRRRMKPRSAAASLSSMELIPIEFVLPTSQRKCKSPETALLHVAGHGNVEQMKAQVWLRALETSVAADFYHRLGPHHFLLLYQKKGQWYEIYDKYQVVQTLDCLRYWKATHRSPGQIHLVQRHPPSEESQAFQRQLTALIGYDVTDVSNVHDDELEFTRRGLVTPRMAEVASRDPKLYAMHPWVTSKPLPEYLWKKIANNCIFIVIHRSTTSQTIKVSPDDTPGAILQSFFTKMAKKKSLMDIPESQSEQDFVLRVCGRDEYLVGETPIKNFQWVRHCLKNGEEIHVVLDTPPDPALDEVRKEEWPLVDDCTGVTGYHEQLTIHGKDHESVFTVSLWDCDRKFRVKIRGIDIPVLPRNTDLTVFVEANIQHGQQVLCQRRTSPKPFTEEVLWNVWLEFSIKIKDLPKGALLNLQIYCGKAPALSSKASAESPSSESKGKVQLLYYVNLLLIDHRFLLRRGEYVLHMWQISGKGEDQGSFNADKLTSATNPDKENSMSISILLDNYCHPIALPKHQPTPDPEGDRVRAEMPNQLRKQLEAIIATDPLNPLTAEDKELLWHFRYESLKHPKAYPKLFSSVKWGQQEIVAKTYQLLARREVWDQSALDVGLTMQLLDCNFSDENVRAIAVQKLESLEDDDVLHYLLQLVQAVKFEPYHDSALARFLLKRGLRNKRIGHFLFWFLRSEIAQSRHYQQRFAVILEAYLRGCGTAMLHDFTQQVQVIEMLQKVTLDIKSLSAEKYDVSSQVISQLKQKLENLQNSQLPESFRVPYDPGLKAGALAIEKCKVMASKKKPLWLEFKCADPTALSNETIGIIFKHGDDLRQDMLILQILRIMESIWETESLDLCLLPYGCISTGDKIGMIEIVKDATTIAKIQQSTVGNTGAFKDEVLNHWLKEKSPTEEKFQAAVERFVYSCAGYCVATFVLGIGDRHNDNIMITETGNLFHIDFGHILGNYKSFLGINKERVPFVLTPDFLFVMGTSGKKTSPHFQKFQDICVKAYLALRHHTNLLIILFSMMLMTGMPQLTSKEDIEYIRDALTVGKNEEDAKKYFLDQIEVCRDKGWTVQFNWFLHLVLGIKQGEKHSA
Procedure: PI3K (p120γ) (h) [Non-Radioactive Assay]
as §1, with “(p120γ)” for “(p110δ/p85α)”
as §2

[2] = Compound stability in human liver microsomes; assay type: in vitro ADME; settings: for half-life at 5 μM / CLint scaled at 5 μM: pH 7.4; for CLint scaled at 5 μM: human liver microsomes, in vivo CLint extrapolated
Procedure: as §3, §4, §5, §6, §7

[3] = rat liver microsomes 0.5 mg protein/mL, compound 5 μM, NADPH, 37° C.
[4] = human liver microsomes 0.5 mg protein/mL, compound 5 μM, NADPH, 37° C.

T1 sequence (O00329 whole entry): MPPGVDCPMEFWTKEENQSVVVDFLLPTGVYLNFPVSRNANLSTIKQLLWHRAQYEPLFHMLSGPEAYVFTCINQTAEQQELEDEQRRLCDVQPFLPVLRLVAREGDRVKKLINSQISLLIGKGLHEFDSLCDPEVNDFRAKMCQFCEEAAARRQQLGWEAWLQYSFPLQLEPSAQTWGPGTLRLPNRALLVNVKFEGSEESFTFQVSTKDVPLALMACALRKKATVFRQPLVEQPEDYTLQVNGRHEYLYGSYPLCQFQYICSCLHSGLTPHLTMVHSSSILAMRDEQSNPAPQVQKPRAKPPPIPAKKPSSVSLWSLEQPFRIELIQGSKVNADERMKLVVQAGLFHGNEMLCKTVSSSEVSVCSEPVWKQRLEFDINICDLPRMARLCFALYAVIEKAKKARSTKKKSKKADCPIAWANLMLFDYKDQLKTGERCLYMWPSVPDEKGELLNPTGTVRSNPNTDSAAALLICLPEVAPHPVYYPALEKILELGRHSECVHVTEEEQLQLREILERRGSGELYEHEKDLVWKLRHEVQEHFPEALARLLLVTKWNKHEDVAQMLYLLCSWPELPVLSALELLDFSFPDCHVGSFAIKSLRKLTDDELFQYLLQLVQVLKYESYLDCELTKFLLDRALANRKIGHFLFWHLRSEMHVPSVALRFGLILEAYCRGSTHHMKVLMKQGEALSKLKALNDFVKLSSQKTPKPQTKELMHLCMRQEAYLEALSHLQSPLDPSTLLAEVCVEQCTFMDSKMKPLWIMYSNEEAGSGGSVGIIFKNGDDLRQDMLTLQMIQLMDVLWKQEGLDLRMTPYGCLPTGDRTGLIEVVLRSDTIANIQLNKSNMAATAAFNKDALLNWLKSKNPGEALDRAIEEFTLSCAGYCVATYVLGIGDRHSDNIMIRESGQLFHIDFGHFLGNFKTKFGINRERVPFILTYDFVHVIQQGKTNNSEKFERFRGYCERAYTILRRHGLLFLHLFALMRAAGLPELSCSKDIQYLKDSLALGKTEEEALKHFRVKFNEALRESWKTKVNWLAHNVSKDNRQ
T1 sequence (P27986 whole entry partner): as the sequence (P27986 whole entry partner) above

Compound COc1ncc(-c2ccn3ncc(C#CCO)c3n2)cc1NS(=O)(=O)c1ccc(F)cc1F [Ex. 1, 2,4-difluoro-N-(5-(3-(3-hydroxyprop-1-yn-1-yl)pyrazolo[1,5-a]pyrimidin-5-yl)-2-methoxypyridin-3-yl)benzenesulfonamide] has an IC50 (PI3K (p110δ/p85α) (h)) of 5 nM, a half-life at 5 μM [1, 3] of 2.92 h and a CLint scaled at 5 μM [1] of 14.2 mL/min/kg. The “TGI % U87MG” value (U87MG glioblastoma cells; 1 mg/kg, 12 days) was 26%, the “TGI % U87MG” value (U87MG glioblastoma cells; 3 mg/kg, 12 days) was 37% and the “TGI % U87MG” value (U87MG glioblastoma cells; 10 mg/kg, 12 days) was 68%. It also gave an IC50 (PI3K p110β/p85α (h)) of 84 nM, an IC50 (PI3K (p120γ) (h)) of 6 nM and a half-life at 5 μM [2, 4] of 11.8 h. It also gave a CLint scaled at 5 μM [2] of 2.45 mL/min/kg.
With COc1ncc(-c2ccn3ncc(C#N)c3n2)cc1NS(=O)(=O)c1ccc(F)cc1F [Ex. 2, N-(5-(3-cyanopyrazolo[1,5-a]pyrimidin-5-yl)-2-methoxypyridin-3-yl)-2,4-difluorobenzenesulfonamide] the IC50 (PI3K (p110δ/p85α) (h)) was 5 nM, the T1/2 [1, 3] was “∞” and the “TGI % U87MG” value (U87MG glioblastoma cells; 1 mg/kg, 12 days) was 59%. For the same compound, the “TGI % U87MG” value (U87MG glioblastoma cells; 3 mg/kg, 12 days) was 76%, the IC50 (PI3K p110β/p85α (h)) was 45 nM and the IC50 (PI3K (p120γ) (h)) was 5 nM. For the same compound, the T1/2 [2, 4] was “∞”.
Compound COc1ncc(-c2ccn3ncc(C#N)c3c2)cc1NS(=O)(=O)c1ccc(F)cc1F [Ex. 3, N-(5-(3-cyanopyrazolo[1,5-a]pyridin-5-yl)-2-methoxypyridin-3-yl)-2,4-difluorobenzenesulfonamide] has an IC50 (PI3K (p110δ/p85α) (h)) of 2 nM, a half-life at 5 μM [1, 3] of 9.59 h and a CLint scaled at 5 μM [1] of 4.32 mL/min/kg. For the same compound, the “TGI % U87MG” value (U87MG glioblastoma cells; 0.3 mg/kg, 13 days) was 26%, the “TGI % U87MG” value (U87MG glioblastoma cells; 1 mg/kg, 13 days) was 70% and the “TGI % U87MG” value (U87MG glioblastoma cells; 3 mg/kg, 13 days) was 95%. For the same compound, the IC50 (PI3K p110β/p85α (h)) was 41 nM, the IC50 (PI3K (p120γ) (h)) was 6 nM and the half-life at 5 μM [2, 4] was 40.1 h. For the same compound, the CLint scaled at 5 μM [2] was 0.72 mL/min/kg.
For COc1ncc(-c2ccn3ncc(C#CCO)c3c2)cc1NS(=O)(=O)c1ccc(F)cc1F [Ex. 4, 2,4-difluoro-N-(5-(3-(3-hydroxyprop-1-yn-1-yl)pyrazolo[1,5-a]pyridin-5-yl)-2-methoxypyridin-3-yl)benzenesulfonamide], the IC50 (PI3K (p110δ/p85α) (h)) was 1 nM, the half-life at 5 μM [1, 3] was 2.56 h and the CLint scaled at 5 μM [1] was 16.2 mL/min/kg. For the same compound, the “TGI % U87MG” value (U87MG glioblastoma cells; 1 mg/kg, 13 days) was 32%, the “TGI % U87MG” value (U87MG glioblastoma cells; 3 mg/kg, 13 days) was 53% and the “TGI % U87MG” value (U87MG glioblastoma cells; 10 mg/kg, 13 days) was 89%. It also gave an IC50 (PI3K p110β/p85α (h)) of 22 nM, an IC50 (PI3K (p120γ) (h)) of 15 nM and a half-life at 5 μM [2, 4] of 4.99 h. The CLint scaled at 5 μM [2] was 5.81 mL/min/kg.
